Results from patent US20230150974A1 (Foghorn Therapeutics Inc., priority 2020, published 2023).

Legend:
HiBiT-BRM = target: T1, HiBiT-BRM (Homo sapiens, UniProt P51531); test: HiBiT-BRM cell-based degradation assay (Nano-Glo HiBiT Lytic Detection); conditions: HeLa cells expressing HiBiT-BRM, 24 h; for DC50: read-out: BRM HiBit Degradation IC50
T1 construct: expressed in transfected cells
In short: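 Luminescence from HiBiT–LgBiT complementation in lysates of a stable HiBiT-BRM HeLa line measured after 24 h compound exposure. Degradation expressed as percent relative to DMSO-treated cells and cells given 2 μM of a known BRM/BRG1 degrader.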

HiBit-BRG1 = target: T2, HiBit-BRG1 (Homo sapiens, UniProt P51532); test: HiBit-BRG1 cell-based degradation assay (Nano-Glo HiBiT Lytic Detection); conditions: HeLa cells expressing HiBit-BRG1 and LgBit, 24 h; for DC50: read-out: BRG1 HiBit Degradation IC50; for Dmax: read-out: BRG1 HiBit Degradation Maximum (%)
T2 construct: expressed in transfected cells
In short: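 Stable HeLa line co-expressing HiBit-BRG1 and LgBit, 5000 cells/well, treated 24 h in a tissue culture incubator. Lysed with Nano-Glo HiBiT lytic reagent, luminescence read. % degradation normalized to DMSO (high control) and 2 μM reference BRM/BRG1 degrader (low control).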

T1 sequence (P51531 whole entry): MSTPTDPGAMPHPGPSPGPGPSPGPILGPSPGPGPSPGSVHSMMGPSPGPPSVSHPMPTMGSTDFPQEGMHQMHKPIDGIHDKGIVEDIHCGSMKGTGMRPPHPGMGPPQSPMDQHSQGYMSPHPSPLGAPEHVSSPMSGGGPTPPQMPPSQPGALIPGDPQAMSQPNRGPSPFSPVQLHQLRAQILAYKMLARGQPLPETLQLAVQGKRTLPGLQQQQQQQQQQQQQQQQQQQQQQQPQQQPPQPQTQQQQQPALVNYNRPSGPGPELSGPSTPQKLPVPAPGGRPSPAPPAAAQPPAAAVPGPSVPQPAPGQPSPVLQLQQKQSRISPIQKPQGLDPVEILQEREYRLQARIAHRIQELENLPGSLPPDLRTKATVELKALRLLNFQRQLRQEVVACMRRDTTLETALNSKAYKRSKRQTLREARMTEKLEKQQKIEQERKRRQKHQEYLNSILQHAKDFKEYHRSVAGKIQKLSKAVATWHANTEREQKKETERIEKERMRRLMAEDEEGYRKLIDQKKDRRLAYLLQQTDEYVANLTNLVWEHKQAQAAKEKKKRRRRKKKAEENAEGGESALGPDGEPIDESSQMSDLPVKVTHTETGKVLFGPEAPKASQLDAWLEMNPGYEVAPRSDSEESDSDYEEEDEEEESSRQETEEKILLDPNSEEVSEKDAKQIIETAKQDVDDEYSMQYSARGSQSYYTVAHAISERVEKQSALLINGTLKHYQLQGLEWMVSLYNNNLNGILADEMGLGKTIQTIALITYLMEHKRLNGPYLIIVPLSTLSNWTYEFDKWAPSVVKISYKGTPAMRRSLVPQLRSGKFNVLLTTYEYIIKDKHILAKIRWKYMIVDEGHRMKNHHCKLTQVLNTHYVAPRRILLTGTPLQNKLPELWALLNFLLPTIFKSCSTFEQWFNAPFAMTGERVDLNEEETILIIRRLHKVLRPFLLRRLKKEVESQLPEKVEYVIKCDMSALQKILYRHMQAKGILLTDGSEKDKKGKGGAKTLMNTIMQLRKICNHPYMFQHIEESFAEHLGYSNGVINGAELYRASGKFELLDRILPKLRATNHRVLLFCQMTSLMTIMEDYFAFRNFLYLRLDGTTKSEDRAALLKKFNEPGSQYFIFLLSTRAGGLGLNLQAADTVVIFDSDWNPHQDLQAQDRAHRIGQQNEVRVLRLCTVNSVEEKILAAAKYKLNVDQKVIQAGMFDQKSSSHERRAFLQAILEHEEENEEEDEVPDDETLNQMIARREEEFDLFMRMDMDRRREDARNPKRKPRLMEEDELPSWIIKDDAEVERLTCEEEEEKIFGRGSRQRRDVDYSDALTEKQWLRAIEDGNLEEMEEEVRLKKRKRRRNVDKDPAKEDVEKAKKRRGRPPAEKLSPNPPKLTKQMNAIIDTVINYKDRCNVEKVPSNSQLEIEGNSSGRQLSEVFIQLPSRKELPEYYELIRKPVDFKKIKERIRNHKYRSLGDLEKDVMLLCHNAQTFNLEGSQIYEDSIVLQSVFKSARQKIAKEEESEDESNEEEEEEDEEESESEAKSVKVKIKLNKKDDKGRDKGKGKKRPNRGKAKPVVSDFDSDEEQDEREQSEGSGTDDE
T2 sequence (P51532 whole entry): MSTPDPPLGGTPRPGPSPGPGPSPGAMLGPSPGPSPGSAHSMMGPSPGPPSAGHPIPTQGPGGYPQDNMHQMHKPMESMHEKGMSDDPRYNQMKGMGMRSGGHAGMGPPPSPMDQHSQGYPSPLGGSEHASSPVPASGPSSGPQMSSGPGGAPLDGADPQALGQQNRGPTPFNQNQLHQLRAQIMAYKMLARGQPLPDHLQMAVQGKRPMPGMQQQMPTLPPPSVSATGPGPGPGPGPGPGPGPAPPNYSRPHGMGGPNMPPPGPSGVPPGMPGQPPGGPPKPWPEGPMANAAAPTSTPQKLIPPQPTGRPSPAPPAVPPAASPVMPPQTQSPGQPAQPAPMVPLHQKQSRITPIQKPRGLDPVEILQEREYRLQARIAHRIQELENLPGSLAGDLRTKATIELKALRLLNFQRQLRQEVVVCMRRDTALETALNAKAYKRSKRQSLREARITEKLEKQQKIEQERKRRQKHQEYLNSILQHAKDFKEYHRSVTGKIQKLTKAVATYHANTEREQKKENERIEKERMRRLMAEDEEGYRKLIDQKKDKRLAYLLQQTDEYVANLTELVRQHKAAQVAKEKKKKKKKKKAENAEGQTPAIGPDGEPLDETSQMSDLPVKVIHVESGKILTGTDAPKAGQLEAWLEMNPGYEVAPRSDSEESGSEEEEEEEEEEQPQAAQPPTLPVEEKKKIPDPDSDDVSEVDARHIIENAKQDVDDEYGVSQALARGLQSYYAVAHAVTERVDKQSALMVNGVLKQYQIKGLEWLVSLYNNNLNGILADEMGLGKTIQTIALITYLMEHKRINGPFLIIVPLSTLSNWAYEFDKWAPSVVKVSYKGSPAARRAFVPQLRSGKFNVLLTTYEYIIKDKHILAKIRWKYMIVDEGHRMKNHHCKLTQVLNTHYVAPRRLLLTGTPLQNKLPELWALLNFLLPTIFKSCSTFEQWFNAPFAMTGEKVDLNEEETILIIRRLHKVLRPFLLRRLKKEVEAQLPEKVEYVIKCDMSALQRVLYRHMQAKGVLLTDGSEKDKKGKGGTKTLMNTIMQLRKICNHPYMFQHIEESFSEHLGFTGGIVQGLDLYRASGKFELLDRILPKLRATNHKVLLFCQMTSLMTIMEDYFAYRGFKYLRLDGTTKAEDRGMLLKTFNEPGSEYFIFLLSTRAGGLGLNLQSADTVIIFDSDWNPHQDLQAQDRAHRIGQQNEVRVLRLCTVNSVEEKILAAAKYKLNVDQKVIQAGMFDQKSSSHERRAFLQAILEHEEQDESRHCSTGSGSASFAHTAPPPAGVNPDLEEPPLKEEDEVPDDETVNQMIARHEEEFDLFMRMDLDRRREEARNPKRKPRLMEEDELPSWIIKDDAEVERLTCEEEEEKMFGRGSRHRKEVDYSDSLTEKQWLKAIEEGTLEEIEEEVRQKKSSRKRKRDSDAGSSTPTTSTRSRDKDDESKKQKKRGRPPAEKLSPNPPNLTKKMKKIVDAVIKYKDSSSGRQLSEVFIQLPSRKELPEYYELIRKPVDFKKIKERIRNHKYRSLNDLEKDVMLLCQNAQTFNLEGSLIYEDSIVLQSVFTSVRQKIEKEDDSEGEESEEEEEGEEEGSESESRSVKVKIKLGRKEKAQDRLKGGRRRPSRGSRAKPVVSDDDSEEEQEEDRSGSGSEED

| Structure (SMILES) | DC50 (HiBiT-BRM) | DC50 (HiBit-BRG1) | Dmax (HiBit-BRG1) | BRM HiBit Degradation Maximum (%) (HiBiT-BRM) |
| --- | --- | --- | --- | --- |
| CN(CCNC(=O)c1ccc(CCOc2cc(-c3ccccc3O)nnc2N)cc1)CCNc1cccc2c1C(=O)N(C1CCC(=O)NC1=O)C2=O (stereo not drawn) [Compound 61, 4-(2-[[3-amino-6-(2-hydroxyphenyl)pyridazin-4-yl]oxy]ethyl)-N-[2-[(2-[[2-(2,6-dioxopiperidin-3-yl)-1,3-dioxoisoindol-4-yl]amino]ethyl)(methyl)amino]ethyl]benzamide] | > 0.1 µM | > 1 µM | < 50% | B (“B” indicates maximum degradation ≥50%) |
| Nc1nnc(-c2ccccc2O)cc1N1CCN(CCNC(=O)CCCCCCCCCCNc2cccc3c2C(=O)N(C2CCC(=O)NC2=O)C3=O)CC1 (stereo not drawn) [Compound 88, N-(2-[4-[3-amino-6-(2-hydroxyphenyl)pyridazin-4-yl]piperazin-1-yl]ethyl)-11-[[2-(2,6-dioxopiperidin-3-yl)-1,3-dioxoisoindol-4-yl]amino]undecanamide] | > 1 µM | > 1 µM | < 50% | C (“C” indicates maximum degradation <50%) |
| Nc1nnc(-c2ccccc2O)cc1N1CCN(CCNC(=O)CCCCCCCCNc2ccc3c(c2)C(=O)N(C2CCC(=O)NC2=O)C3=O)CC1 (stereo not drawn) [Compound 92] | > 1 µM | > 1 µM | < 50% | C (“C” indicates maximum degradation <50%) |
| Nc1nnc(-c2ccccc2O)cc1OCCc1ccc(C(=O)NCCCCCNc2ccc3c(c2)C(=O)N(C2CCC(=O)NC2=O)C3=O)cc1 (stereo not drawn) [Compound 51, 4-(2-[[3-amino-6-(2-hydroxyphenyl)pyridazin-4-yl]oxy]ethyl)-N-(5-[[2-(2,6-dioxopiperidin-3-yl)-1,3-dioxoisoindol-5-yl]amino]pentyl)benzamide] | > 1 µM | > 1 µM | < 50% | C (“C” indicates maximum degradation <50%) |
| Cc1ncsc1-c1ccc([C@H](C)NC(=O)[C@@H]2C[C@@H](O)CN2C(=O)[C@@H](c2cc(OCCN(C)Cc3ccc(CCOc4cc(-c5ccccc5O)nnc4N)cc3)no2)C(C)C)cc1 [Compound 251, (2S,4R)-1-((R)-2-(3-(2-((4-(2-((3-amino-6-(2-hydroxyphenyl)pyridazin-4-yl)oxy)ethyl)benzyl)(methyl)amino)ethoxy)isoxazol-5-yl)-3-methylbutanoyl)-4-hydroxy-N-((S)-1-(4-(4-methylthiazol-5-yl)phenyl)ethyl)pyrrolidine-2-carboxamide] | < 0.01 µM | < 0.01 µM | > 75% | A (“A” indicates maximum degradation ≥75%) |
| Nc1nnc(-c2ccccc2O)cc1OCCc1ccc(CNCCN2CCN(c3cccc4c3C(=O)N(C3CCC(=O)NC3=O)C4=O)CC2=O)cc1 (stereo not drawn) [Compound 153, 4-(4-(2-((4-(2-((3-amino-6-(2-hydroxyphenyl)pyridazin-4-yl)oxy)ethyl)benzyl)amino)ethyl)-3-oxopiperazin-1-yl)-2-(2,6-dioxopiperidin-3-yl)isoindoline-1,3-dione] | > 1 µM | > 1 µM | < 50% | C (“C” indicates maximum degradation <50%) |
| Nc1nnc(-c2ccccc2O)cc1OCCc1ccc(CNC(=O)CCCCOc2cccc3c2C(=O)N(C2CCC(=O)NC2=O)C3=O)cc1 (stereo not drawn) [Compound 67, N-[[4-(2-[[3-amino-6-(2-hydroxyphenyl)pyridazin-4-yl]oxy]ethyl)phenyl]methyl]-5-[[2-(2,6-dioxopiperidin-3-yl)-1,3-dioxoisoindol-4-yl]oxy]pentanamide] | > 0.1 µM | > 1 µM | < 50% | A (“A” indicates maximum degradation ≥75%) |
| Nc1nnc(-c2ccccc2O)cc1N1CCN(CCNC(=O)CCCCCCCCCNc2cccc3c2C(=O)N(C2CCC(=O)NC2=O)C3=O)CC1 (stereo not drawn) [Compound 98, N-(2-[4-[3-amino-6-(2-hydroxyphenyl)pyridazin-4-yl]piperazin-1-yl]ethyl)-10-[[2-(2,6-dioxopiperidin-3-yl)-1,3-dioxo-2,3-dihydro-1H-isoindol-4-yl]amino]decanamide] | > 1 µM | > 1 µM | < 50% | C (“C” indicates maximum degradation <50%) |

Now from value to compound, other results behind:

| DC50 (HiBiT-BRM) | DC50 (HiBit-BRG1) | Dmax (HiBit-BRG1) | Structure (SMILES) | BRM HiBit Degradation Maximum (%) (HiBiT-BRM) |
| --- | --- | --- | --- | --- |
| > 1 µM | > 1 µM | < 50% | Cc1ncsc1-c1ccc([C@H](C)NC(=O)[C@@H]2C[C@@H](O)CN2C(=O)[C@@H](NC(=O)CCN2CCC(OC3CCN(CCC(=O)NCc4ccc(CCOc5cc(-c6ccccc6O)nnc5N)cc4)CC3)CC2)C(C)(C)C)cc1 [Compound 249, (2S,4R)-1-((S)-2-(3-(4-((1-(3-((4-(2-((3-amino-6-(2-hydroxyphenyl)pyridazin-4-yl)oxy)ethyl)benzyl)amino)-3-oxopropyl)piperidin-4-yl)oxy)piperidin-1-yl)propanamido)-3,3-dimethylbutanoyl)-4-hydroxy-N-((S)-1-(4-(4-methylthiazol-5-yl)phenyl)ethyl)pyrrolidine-2-carboxamide] | A (“A” indicates maximum degradation ≥75%) |
| > 1 µM | > 1 µM | < 50% | Cc1ncsc1-c1ccc(CNC(=O)[C@@H]2C[C@@H](O)CN2C(=O)[C@@H](NC(=O)CCN2CCC3(CC2)CC(C(=O)NCc2ccc(CCOc4cc(-c5ccccc5O)nnc4N)cc2)C3)C(C)(C)C)cc1 [Compound 186, N-[[4-(2-[[3-amino-6-(2-hydroxyphenyl)pyridazin-4-yl]oxy]ethyl)phenyl]methyl]-7-(2-[[(2S)-1-[(2S,4R)-4-hydroxy-2-([[4-(4-methyl-1,3-thiazol-5-yl)phenyl]methyl]carbamoyl)pyrrolidin-1-yl]-3,3-dimethyl-1-oxobutan-2-yl]carbamoyl]ethyl)-7-azaspiro[3.5]nonane-2-carboxamide] | C (“C” indicates maximum degradation <50%) |
| > 1 µM | > 1 µM | < 50% | Cc1ncsc1-c1ccc(CNC(=O)[C@H]2C[C@H](O)CN2C(=O)[C@H](NC(=O)COCCOCCNC(=O)c2ccc(CCOc3cc(-c4ccccc4O)nnc3N)cc2)C(C)(C)C)cc1 (stereo in doubt) [Compound 59, (2R,4S)-1-[(2R)-2-[2-[2-(2-[[4-(2-[[3-amino-6-(2-hydroxyphenyl)pyridazin-4-yl]oxy]ethyl)phenyl]formamido]ethoxy)ethoxy]acetamido]-3,3-dimethylbutanoyl]-4-hydroxy-N-[[4-(4-methyl-1,3-thiazol-5-yl)phenyl]methyl]pyrrolidine-2-carboxamide] | B (“B” indicates maximum degradation ≥50%) |
| > 0.01 µM | > 0.1 µM | > 50% | Cc1ncsc1-c1ccc([C@H](C)NC(=O)[C@@H]2C[C@@H](O)CN2C(=O)[C@@H](c2cc(OCCN3CCN(CCC(=O)NCc4ccc(CCOc5cc(-c6ccccc6O)nnc5N)cc4)CC3)no2)C(C)C)cc1 [Compound 175, (2S,4R)-1-[(2R)-2-[3-(2-[4-[2-([[4-(2-[[3-amino-6-(2-hydroxyphenyl)pyridazin-4-yl]oxy]ethyl)phenyl]methyl]carbamoyl)ethyl]piperazin-1-yl]ethoxy)-1,2-oxazol-5-yl]-3-methylbutanoyl]-4-hydroxy-N-[(1S)-1-[4-(4-methyl-1,3-thiazol-5-yl)phenyl]ethyl]pyrrolidine-2-carboxamide] | A (“A” indicates maximum degradation ≥75%) |
| > 1 µM | > 1 µM | < 50% | Cc1ncsc1-c1ccc(CNC(=O)[C@@H]2C[C@@H](O)CN2C(=O)[C@@H](NC(=O)CCN2CCN(CCC(=O)NCc3ccc(CCOc4cc(-c5ccccc5O)nnc4N)cc3)CC2)C(C)(C)C)cc1 [Compound 189, (2S,4R)-1-[(2S)-2-(3-[4-[2-([[4-(2-[[3-amino-6-(2-hydroxyphenyl)pyridazin-4-yl]oxy]ethyl)phenyl]methyl]carbamoyl)ethyl]piperazin-1-yl]propanamido)-3,3-dimethylbutanoyl]-4-hydroxy-N-[[4-(4-methyl-1,3-thiazol-5-yl)phenyl]methyl]pyrrolidine-2-carboxamide] | C (“C” indicates maximum degradation <50%) |
| > 0.01 µM | > 1 µM | < 50% | Cc1ncsc1-c1ccc([C@H](C)NC(=O)[C@@H]2C[C@@H](O)CN2C(=O)[C@@H](NC(=O)CCCCCCCCCCCCCC(=O)NCc2ccc(CCN(C)c3cc(-c4ccccc4O)nnc3N)cc2)C(C)(C)C)cc1 [Compound 255, N1-(4-(2-((3-amino-6-(2-hydroxyphenyl)pyridazin-4-yl)(methyl)amino)ethyl)benzyl)-N15-((S)-1-((2S,4R)-4-hydroxy-2-(((S)-1-(4-(4-methylthiazol-5-yl)phenyl)ethyl)carbamoyl)pyrrolidin-1-yl)-3,3-dimethyl-1-oxobutan-2-yl)pentadecanediamide] | A (“A” indicates maximum degradation ≥75%) |
| > 1 µM | > 1 µM | < 50% | Cc1ncsc1-c1ccc(CNC(=O)[C@@H]2C[C@@H](O)CN2C(=O)[C@@H](NC(=O)COCCOCCOCCOCCOCCNC(=O)c2ccc(CCOc3cc(-c4ccccc4O)nnc3N)cc2)C(C)(C)C)cc1 [Compound 167, (2S,4R)-1-((S)-1-(4-(2-((3-amino-6-(2-hydroxyphenyl)pyridazin-4-yl)oxy)ethyl)phenyl)-21-(tert-butyl)-1,19-dioxo-5,8,11,14,17-pentaoxa-2,20-diazadocosan-22-oyl)-4-hydroxy-N-(4-(4-methylthiazol-5-yl)benzyl)pyrrolidine-2-carboxamide] | B (“B” indicates maximum degradation ≥50%) |
